Results published in PubChem BioAssay AID248 (DTP/NCI, 2004).
“And” between values parts separate entries of the source, which are not always exact repeats. Equal values may be shown once. Inconclusive results and toxic doses are left out. Rule as the data show it: active = T/C of 150% or more; inactive = T/C below 125%.

System: L1210 leukemia ip in BDF1 mice, survival T/C
Experiment: NCI In Vivo Anticancer Drug Screen. Data for tumor model L1210 Leukemia (intraperitoneal) in B6D2F1 (BDF1) mice
Settings: endpoint: mean survival time, higher = longer survival
Outline: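 In this screen, tumor-bearing mice given compound are compared to those given vehicle, and their survival values are reported as a treated-to-control quotient.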

[1] = dose: 75.0 mg/kg/injection, schedule: Q01DX001 (ip), vehicle: saline
[2] = dose: 150.0 mg/kg/injection, schedule: Q01DX001 (ip), vehicle: saline
[3] = dose: 300.0 mg/kg/injection, schedule: Q01DX001 (ip), vehicle: saline
[4] = dose: 100.0 mg/kg/injection, schedule: Q01DX009 (ip), vehicle: Klucel (hydroxypropylcellulose) (HPC)
[5] = dose: 200.0 mg/kg/injection, schedule: Q01DX009 (ip), vehicle: Klucel (hydroxypropylcellulose) (HPC)
[6] = dose: 100.0 mg/kg/injection, schedule: Q04DX003 (ip), vehicle: saline
[7] = dose: 200.0 mg/kg/injection, schedule: Q04DX003 (ip), vehicle: saline
[8] = dose: 100.0 mg/kg/injection, schedule: Q04DX003 (ip), vehicle: Klucel (hydroxypropylcellulose) (HPC)
[9] = dose: 200.0 mg/kg/injection, schedule: Q04DX003 (ip), vehicle: Klucel (hydroxypropylcellulose) (HPC)
[10] = dose: 400.0 mg/kg/injection, schedule: Q01DX009 (ip), vehicle: Klucel (hydroxypropylcellulose) (HPC)
[11] = dose: 400.0 mg/kg/injection, schedule: Q04DX003 (ip), vehicle: Klucel (hydroxypropylcellulose) (HPC)
[12] = dose: 50.0 mg/kg/injection, schedule: Q01DX009 (ip), vehicle: saline
[13] = dose: 100.0 mg/kg/injection, schedule: Q01DX009 (ip), vehicle: saline
[14] = dose: 25.0 mg/kg/injection, schedule: Q01DX009 (ip), vehicle: saline
[15] = dose: 100.0 mg/kg/injection, schedule: Q04DX002 (ip), vehicle: Klucel (hydroxypropylcellulose) (HPC)

Measured: T/C

O=C(O)/C=C\c1c[nH]c2ccccc12 (tested in a mixture with another compound)
inactive: [1] 104 % of control | [2] 105 % of control | [3] 110 % of control

C/C=C/C=N/NC(=O)c1ccc(OC)cc1
inactive: [4] 102 % of control | [5] 86 % of control

CC(C)C1=CC23CCC4C(C)(C(=O)O)CCCC4(C)C2CC1C1C(=O)c2ccccc2C(=O)C13 (stereo not drawn)
inactive: dose: 100.0 mg/kg/injection, schedule: Q01DX001 (ip), vehicle: saline 90 % of control | dose: 200.0 mg/kg/injection, schedule: Q01DX001 (ip), vehicle: saline 95 % of control | dose: 400.0 mg/kg/injection, schedule: Q01DX001 (ip), vehicle: saline 91 % of control

OCCc1nn[nH]n1
inactive: [6] 104 % of control | [7] 93 % of control | dose: 400.0 mg/kg/injection, schedule: Q04DX003 (ip), vehicle: saline 98 % of control

CCOc1ccc(N=Cc2ccc(OC(=O)c3ccccc3)c(OC)c2)cc1
inactive: dose: 100.0 mg/kg/injection, schedule: Q04DX002 (ip), vehicle: saline with Tween-80 102 % of control | dose: 200.0 mg/kg/injection, schedule: Q04DX002 (ip), vehicle: saline with Tween-80 95 % of control | dose: 400.0 mg/kg/injection, schedule: Q04DX002 (ip), vehicle: saline with Tween-80 113 % of control

O=C(CSCC(=O)c1ccc(Br)cc1)c1ccc(Br)cc1
inactive: dose: 100.0 mg/kg/injection, schedule: Q04DX003 (ip), vehicle: other 101 % of control | dose: 200.0 mg/kg/injection, schedule: Q04DX003 (ip), vehicle: other 93 % of control | dose: 400.0 mg/kg/injection, schedule: Q04DX003 (ip), vehicle: other 86 % of control

Nc1ccccc1C(=O)OCCc1ccccc1
inactive: [4] 93 % of control | [8] 94 % of control | [5] 93 % of control | [9] 95 % of control | [10] 95 % of control | [11] 92 % of control

N=c1ccccn1CC(O)COc1cccc([N+](=O)[O-])c1 (stereo not drawn)
inactive: dose: 100.0 mg/kg/injection, schedule: Q04DX002 (ip), vehicle: other 97 % of control | dose: 200.0 mg/kg/injection, schedule: Q04DX002 (ip), vehicle: other 93 % of control

O=C1N=C2C=CC=CN2C(=O)C1Cc1ccccc1 (stereo not drawn)
inactive: dose: 100.0 mg/kg/injection, schedule: Q01DX009 (ip), vehicle: saline with Tween-80 90 % of control | dose: 100.0 mg/kg/injection, schedule: Q04DX003 (ip), vehicle: saline with Tween-80 98 % of control | dose: 200.0 mg/kg/injection, schedule: Q01DX009 (ip), vehicle: saline with Tween-80 89 % of control | dose: 200.0 mg/kg/injection, schedule: Q04DX003 (ip), vehicle: saline with Tween-80 94 % of control | dose: 400.0 mg/kg/injection, schedule: Q01DX009 (ip), vehicle: saline with Tween-80 96 % of control | dose: 400.0 mg/kg/injection, schedule: Q04DX003 (ip), vehicle: saline with Tween-80 99 % of control

CCC[N+]12CC=C3COC(=O)C(C)(O)C(C)(O)C(C)C(=O)OC(CC1)C32 (stereo not drawn)
inactive: [12] 92 % of control | [13] 95 % of control | dose: 200.0 mg/kg/injection, schedule: Q01DX009 (ip), vehicle: saline 95 % of control

Nc1cc(C(=O)O)[nH]c(=S)n1
inactive: dose: 100.0 mg/kg/injection, schedule: Q01DX Z (ip), vehicle: methylcellulose (MC) 100 % of control | dose: 200.0 mg/kg/injection, schedule: Q01DX Z (ip), vehicle: methylcellulose (MC) 100 % of control

N#Cc1nc2c(nc1C#N)CCCC2
inactive: dose: 6.25 mg/kg/injection, schedule: Q04DX003 (ip), vehicle: Klucel (hydroxypropylcellulose) (HPC) 98 % of control | dose: 12.5 mg/kg/injection, schedule: Q04DX003 (ip), vehicle: Klucel (hydroxypropylcellulose) (HPC) 95 % of control | dose: 25.0 mg/kg/injection, schedule: Q01DX001 (ip), vehicle: Klucel (hydroxypropylcellulose) (HPC) 96 % of control | dose: 25.0 mg/kg/injection, schedule: Q04DX003 (ip), vehicle: Klucel (hydroxypropylcellulose) (HPC) 97 % of control and 102 % of control | dose: 50.0 mg/kg/injection, schedule: Q01DX001 (ip), vehicle: Klucel (hydroxypropylcellulose) (HPC) 105 % of control | dose: 100.0 mg/kg/injection, schedule: Q01DX001 (ip), vehicle: Klucel (hydroxypropylcellulose) (HPC) 104 % of control

O=C(Nc1ccc(Cl)c(Cl)c1)OCC1CC2C=CC1C2 (stereo not drawn)
inactive: [4] 100 % of control | [5] 97 % of control | [10] 106 % of control

CN(Cc1cnc2cc(N)nc(N)c2n1)c1ccc(C(=O)O)cc1
inactive: dose: 25.0 mg/kg/injection, schedule: Q01DX009 (ip), vehicle: other 108 % of control | dose: 50.0 mg/kg/injection, schedule: Q01DX009 (ip), vehicle: other 106 % of control | dose: 75.0 mg/kg/injection, schedule: Q01DX001 (ip), vehicle: other 98 % of control | dose: 100.0 mg/kg/injection, schedule: Q01DX009 (ip), vehicle: other 101 % of control | dose: 150.0 mg/kg/injection, schedule: Q01DX001 (ip), vehicle: other 102 % of control | dose: 300.0 mg/kg/injection, schedule: Q01DX001 (ip), vehicle: other 105 % of control

O=C(O)C1=CCC=CC1C(=O)O (stereo not drawn)
inactive: [14] 93 % of control | [12] 95 % of control | [13] 98 % of control | [6] 95 % of control | [7] 93 % of control

CC1(c2ccc(Cl)cc2)NC(=O)N(CN2CCCCC2)C1=O (stereo not drawn)
inactive: dose: 12.5 mg/kg/injection, schedule: Q01DX009 (ip), vehicle: saline sonified 102 % of control | dose: 25.0 mg/kg/injection, schedule: Q01DX009 (ip), vehicle: saline sonified 96 % of control | dose: 50.0 mg/kg/injection, schedule: Q01DX009 (ip), vehicle: saline sonified 104 % of control

O=C1OC(/C=C/c2ccccc2)=NC/1=C\c1cccc([N+](=O)[O-])c1
inactive: dose: 25.0 mg/kg/injection, schedule: Q04DX002 (ip), vehicle: Klucel (hydroxypropylcellulose) (HPC) 93 % of control | dose: 50.0 mg/kg/injection, schedule: Q04DX002 (ip), vehicle: Klucel (hydroxypropylcellulose) (HPC) 104 % of control | [15] 89 % of control

CC12C(=O)NC(=O)N3CCCN4C(=O)NC(=O)C1(C)C4C32 (stereo not drawn)
inactive: [1] 94 % of control | [2] 97 % of control | [3] 100 % of control

O=C(O)[C@H]1CCCC[C@H]1C(=O)O
inactive: dose: 50.0 mg/kg/injection, schedule: Q04DX003 (ip), vehicle: Klucel (hydroxypropylcellulose) (HPC) 98 % of control | [8] 95 % of control | [9] 103 % of control and 106 % of control | [11] 100 % of control

Cc1cc(Cl)c(Cl)cc1NC(=O)c1cccc([N+](=O)[O-])c1
inactive: [4] 93 % of control | [5] 96 % of control | [10] 100 % of control

O=C(c1ccccc1)C1CNCCC1(O)c1ccccc1 (stereo not drawn)
inactive: [1] 104 % of control | dose: 75.0 mg/kg/injection, schedule: Q04DX003 (ip), vehicle: acetone 101 % of control | [2] 95 % of control | dose: 150.0 mg/kg/injection, schedule: Q04DX003 (ip), vehicle: acetone 91 % of control | [3] 116 % of control

Clc1ccc(OCc2sc3ccc(Br)cc3c2CN2CCOCC2)cc1
inactive: dose: 75.0 mg/kg/injection, schedule: Q01DX009 (ip), vehicle: Klucel (hydroxypropylcellulose) (HPC) 100 % of control | [8] 94 % of control | dose: 150.0 mg/kg/injection, schedule: Q01DX009 (ip), vehicle: Klucel (hydroxypropylcellulose) (HPC) 105 % of control | [9] 96 % of control | dose: 300.0 mg/kg/injection, schedule: Q01DX009 (ip), vehicle: Klucel (hydroxypropylcellulose) (HPC) 95 % of control | [11] 89 % of control

CC(C)(C)OC(=O)NOC(=O)c1ccc([N+](=O)[O-])cc1
inactive: [15] 104 % of control | dose: 200.0 mg/kg/injection, schedule: Q04DX002 (ip), vehicle: Klucel (hydroxypropylcellulose) (HPC) 96 % of control | dose: 400.0 mg/kg/injection, schedule: Q04DX002 (ip), vehicle: Klucel (hydroxypropylcellulose) (HPC) 107 % of control

CN(C)c1ccc(NC2=NCCO2)cc1
inactive: dose: 12.5 mg/kg/injection, schedule: Q04DX003 (ip), vehicle: saline 95 % of control | [14] 104 % of control | dose: 25.0 mg/kg/injection, schedule: Q04DX003 (ip), vehicle: saline 102 % of control | [12] 95 % of control | dose: 50.0 mg/kg/injection, schedule: Q04DX003 (ip), vehicle: saline 98 % of control | [6] 97 % of control | [7] 87 % of control
